According to US10583135B2, “Compositions for treating CMT and related disorders” (Pharnext, priority 2009, dated 2020):

test system: Myelin Basic Protein (MBP) expression; experiment: MBP expression in PMP22 TG sensory neuron/Schwann cell co-cultures (in vitro model of CMT1A); type: cell-based, rat; conditions: day 10 (=17 days of culture), doses 1 and 6, in presence of ascorbic acid, compared to control
Experimental: A model of co-culture was used as an in vitro model of CMT1A. This model of myelination consists in co-culturing sensory neurons and Schwann cells from male PMP22 Transgenic (TG) dissociated Dorsal Root Ganglia (DRG).
The aim of this study is to assess the effect of 3 test compounds (+/− baclofen, naltrexone and sorbitol) and Mix7 (a mixture of these 3 drugs) on myelination process. The effect of the 3 test compounds, and their mixture on myelination, are assessed by evaluating Myelin Basic Protein (MBP) expression in presence of ascorbic acid.
Each embryo is dispatched on numerating petri dish (35 mm of diameter). The head of embryo is cut, placed on 1.5 ml tube DNAase free; the ADN is extracted with the Extract-N-Amp Tissue Kit (Sigma Aldrich). The genotyping (Male (M) and female (F), wild type and PMP22 transgenic) is performed with the kit Fast SYBR Green Master Mix (Applied Biosystem). This genotyping is performed in parallel of the dissection of dorsal root ganglia (DRG), so that at the end of the dissection, only one type of culture (DRG from transgenic male) is done. DRG of each embryo is collected, placed in ice-cold medium of Leibovitz (L15, Invitrogen). At the end of the dissection, DRG of TGM are pooled and dissociated by trypsinization (trypsin EDTA, 0.05%; Invitrogen) for 20 min at 37° C. The reaction is stopped by addition of DMEM containing 10% of fetal bovine serum (FBS) in the presence of DNAase I (Roche). The suspension is triturated with a 10 ml pipette. Cells are then centrifuged at 350×g for 10 min at room temperature. […] Viable cells are counted in a Neubauer cytometer using the trypan blue exclusion test (Sigma) and seeded on the basis of 10 000 cells per well in 96 well-plates (Greiner) treated with poly-L-lysine. […]
Three separate and independent cultures of DRG (from TG embryos male rats) are done. These conditions are assessed in presence of ascorbic acid, 6 wells per condition. The solution ready to use of all test compounds are extemporaneously prepared from a stock solution, stored at −20° C. […]

| SMILES | MBP expression |
| --- | --- |
| NCC(CC(=O)O)c1ccc(Cl)cc1 (racemic) [(RS)-baclofen] | no substantial effect |
| OC[C@@H](O)[C@@H](O)[C@H](O)[C@@H](O)CO [D-sorbitol] | no substantial effect |
| O=C1CC[C@@]2(O)[C@H]3Cc4ccc(O)c5c4[C@@]2(CCN3CC2CC2)[C@H]1O5 [naltrexone] | no substantial effect |
